# According to patent publication US7678791B2, “Nitroheteroaryl-containing rifamycin derivatives” (Cumbre IP Ventures, L.P., priority 2006, dated 2010):
# Test system: Mycobacterium tuberculosis H37Rv (rif-resistant)
# Experiment: microbe, parasite or virus in culture
# Assay type: cell-based
smiles,measurement,setting,value
"CO[C@H]1/C=C/O[C@@]2(C)Oc3c(C)c(O)c4c(c3C2=O)C2=NC3(CCN(CCn5c([N+](=O)[O-])cnc5C)CC3)NC2=C(NC(=O)/C(C)=C\C=C\[C@H](C)[C@H](O)[C@@H](C)[C@@H](O)[C@@H](C)[C@H](OC(C)=O)[C@@H]1C)C4=O [Example 1, 4-Deoxy-3,4-[2-spiro-[1-[2-(2-methyl-5-nitro-imidazol-1-yl)ethyl]-piperidin-4-yl]]-(1H)-imidazo-(2,5-dihydro)rifamycin S]","antimicrobial activity in words, rifampin-resistant M. tuberculosis",,retains activity
same,MIC,"Mycobacterium tuberculosis, H37RV",5 µg/mL
